Columns and labels:
Type in all cases: binding
[1] = molecular target: T1, FPR2 (Homo sapiens, UniProt P25090); assay: NanoBRET screen HiBiT-FPR2 in HEK293; conditions: FPR2
T1 construct: purchased Promega (in-house HiBiT-GPCR construct library, NanoBRET)
T1 sequence (P25090 1-351): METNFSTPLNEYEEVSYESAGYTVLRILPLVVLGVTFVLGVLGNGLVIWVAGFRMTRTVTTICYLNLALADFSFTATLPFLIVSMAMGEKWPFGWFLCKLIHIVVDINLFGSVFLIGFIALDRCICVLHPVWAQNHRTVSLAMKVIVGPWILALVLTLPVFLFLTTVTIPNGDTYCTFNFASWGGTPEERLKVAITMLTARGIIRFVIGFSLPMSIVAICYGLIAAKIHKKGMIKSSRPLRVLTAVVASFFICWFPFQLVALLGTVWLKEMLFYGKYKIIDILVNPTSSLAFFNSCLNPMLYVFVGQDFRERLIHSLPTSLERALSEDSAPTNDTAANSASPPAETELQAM
Procedure: (§1) Each tracer candidate was screened across the entire library of HiBiT-GPCR constructs using NanoBRET as the detection modality. As depicted in Figure 4A, the specificity of interactions was evaluated through decrease in BRET due to competitive displacement of a bound tracer by excess parental compound. Each tracer was analyzed for binding to each HiBiT-GPCR fusion in the absence and in the presence of competing parental compound. Briefly, HEK293 cells were transfected with HiBiT-GPCR constructs diluted into promoterless DNA to reduce expression and maximize translocation to the cell surface. Each tracer candidate was then screened at concentrations of 1 μM and 0.1 μM across cells expressing these fusions. Cells were treated for 1.5 h with tracer either alone or in the presence of 20 μM competing parental compound (i.e., control). BRET was measured upon addition of purified LgBiT and subsequent complementation with HiBiT genetically fused to a GPCR. The specificity of interactions was assessed through a decrease in BRET signal due to competitive displacement of the bound tracer. To further gauge the robustness of these interactions, the fold response over the control (i.e., BRETtracer/BRETcontrol) was calculated. We chose a 1.5-fold response, which translates to ≥7-fold signal over noise as the minimal threshold required to score an interaction as positive. […]. Below we highlight the screening results obtained for our exemplary fluorescent tracers based on Clozapine, Amitriptyline and AZD1283.
(§2) HiBiT-GPCR DNA constructs were diluted in 10 mM Tris pH 8 to a final concentration of 0.01 μg/μL, arrayed in 96-well plates and stored at −20 °C. For transfection, HEK293 cells were suspended in Opti-MEM (without phenol red) supplemented with 2% fetal bovine serum (Seradigm) and 100 units/mL penicillin–streptomycin (Gibco) at a final concentration of 220,000 cells/mL and dispensed into white 96-well plates at 90 μL/well. Subsequent transfections and screens were carried using an Agilent Bravo Automated Liquid Handling Platform. First, the 96-well HiBiT DNA arrays were diluted 25-fold in Opti-MEM (without serum or phenol red) to a final concentration of 0.0004 μg/μL and 20 μL of the diluted DNAs were transferred into new 96-well plates. Next, promoterless carrier DNA (1 μg/μL) was diluted 25-fold (0.04 μg/μL) and then dispensed into the diluted arrays at 20 μL/well. Following brief mixing, Viafect transfection reagent (Promega) diluted 16-fold into Opti-MEM was dispensed into the plates at 40 μL/well. After mixing by pipetting, plates were incubated for 10 min on the pipetting station deck. The DNA-transfection reagent complexes were then added to plates containing cells. To facilitate the screen, 10 μL of DNA-transfection reagent complexes were added in duplicates to the top 4 and bottom 4 rows, resulting in two identical 48-well arrays per plate. Plates with transfected cells were incubated for 18–20 h at 37 °C/5% CO2. A screen of each tracer across the entire library using two different concentrations requires duplicate plates of transfected cells. Depending on the number of tracers being screened, transfections can be scaled up using the same ratios. The next day, for each tracer, four 20× screening solutions in tracer dilution buffer (Promega) were prepared: two duplicates at final concentration of 20 μM and two duplicates at a final concentration of 2 μM. A competing unmodified compound was added to one of each duplicate at a final concentration of 400 μM. The four resulting solutions were diluted 4-fold in Opti-MEM without serum or phenol red to generate 5× solutions (5 µM and 0.5 µM tracer +/− 100 μM competing compound). To screen the library, a BioTek MultiFlo FX liquid dispenser was used to dispense 22.5 µL of tracer solution to the top 4 rows and 22.5 µL tracer + competing compound solution to the 4 bottom rows. Plates were briefly mixed on an orbital shaker and incubated for 1.5 h at room temperature. […]

[2] = molecular target: T2, NTSR1 (Homo sapiens, UniProt P30989); assay: NanoBRET screen HiBiT-NTSR1 in HEK293; conditions: NTSR1
T2 construct: purchased Promega (in-house HiBiT-GPCR construct library, NanoBRET)
Procedure: as §1, §2

[3] = molecular target: T3, PTGER4 (Homo sapiens, UniProt P35408); assay: NanoBRET screen HiBiT-PTGER4 in HEK293; conditions: PTGER4
T3 construct: purchased Promega (in-house HiBiT-GPCR construct library, NanoBRET)
Procedure: as §1, §2

[4] = molecular target: T4, PTGDR (Homo sapiens, UniProt Q13258); assay: NanoBRET screen HiBiT-PTGDR in HEK293; conditions: PTGDR
T4 construct: purchased Promega (in-house HiBiT-GPCR construct library, NanoBRET)
T4 sequence (Q13258 1-359): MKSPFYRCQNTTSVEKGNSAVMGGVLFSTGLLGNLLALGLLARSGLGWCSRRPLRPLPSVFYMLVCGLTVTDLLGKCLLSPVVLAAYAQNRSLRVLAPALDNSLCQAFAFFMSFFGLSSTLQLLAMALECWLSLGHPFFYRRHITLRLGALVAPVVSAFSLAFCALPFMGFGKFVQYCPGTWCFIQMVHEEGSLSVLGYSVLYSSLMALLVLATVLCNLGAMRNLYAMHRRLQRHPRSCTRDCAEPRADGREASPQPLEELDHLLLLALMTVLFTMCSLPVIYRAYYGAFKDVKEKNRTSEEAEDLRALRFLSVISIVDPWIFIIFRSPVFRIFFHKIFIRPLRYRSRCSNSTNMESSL
Procedure: as §1, §2

[5] = molecular target: T5, BDKRB1 (Homo sapiens, UniProt P46663); assay: NanoBRET screen HiBiT-BDKRB1 in HEK293; conditions: BDKRB1
T5 construct: purchased Promega (in-house HiBiT-GPCR construct library, NanoBRET)
T5 sequence (P46663 1-353): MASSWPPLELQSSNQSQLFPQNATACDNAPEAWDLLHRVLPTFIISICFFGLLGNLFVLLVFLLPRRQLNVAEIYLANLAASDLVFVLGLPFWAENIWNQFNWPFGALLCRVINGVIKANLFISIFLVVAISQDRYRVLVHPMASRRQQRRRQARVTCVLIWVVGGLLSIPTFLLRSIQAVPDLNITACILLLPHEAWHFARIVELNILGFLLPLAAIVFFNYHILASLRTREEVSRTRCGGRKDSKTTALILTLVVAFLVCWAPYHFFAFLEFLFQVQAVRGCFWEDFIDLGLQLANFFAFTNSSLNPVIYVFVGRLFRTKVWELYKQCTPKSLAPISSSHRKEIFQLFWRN
Procedure: as §1, §2

T3 sequence (P35408 whole entry): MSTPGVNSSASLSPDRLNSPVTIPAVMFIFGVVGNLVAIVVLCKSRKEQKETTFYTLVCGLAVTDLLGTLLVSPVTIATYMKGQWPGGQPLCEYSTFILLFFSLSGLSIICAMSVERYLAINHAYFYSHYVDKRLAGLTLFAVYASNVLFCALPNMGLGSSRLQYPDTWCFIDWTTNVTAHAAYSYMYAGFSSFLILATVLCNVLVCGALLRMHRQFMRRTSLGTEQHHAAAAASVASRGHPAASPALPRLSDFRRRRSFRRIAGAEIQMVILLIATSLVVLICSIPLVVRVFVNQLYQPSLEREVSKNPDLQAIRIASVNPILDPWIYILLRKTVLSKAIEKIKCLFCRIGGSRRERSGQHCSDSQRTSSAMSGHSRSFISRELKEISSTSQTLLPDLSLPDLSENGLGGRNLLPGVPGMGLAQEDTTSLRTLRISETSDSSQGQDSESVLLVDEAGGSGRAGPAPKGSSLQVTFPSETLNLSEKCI
T2 sequence (P30989 whole entry): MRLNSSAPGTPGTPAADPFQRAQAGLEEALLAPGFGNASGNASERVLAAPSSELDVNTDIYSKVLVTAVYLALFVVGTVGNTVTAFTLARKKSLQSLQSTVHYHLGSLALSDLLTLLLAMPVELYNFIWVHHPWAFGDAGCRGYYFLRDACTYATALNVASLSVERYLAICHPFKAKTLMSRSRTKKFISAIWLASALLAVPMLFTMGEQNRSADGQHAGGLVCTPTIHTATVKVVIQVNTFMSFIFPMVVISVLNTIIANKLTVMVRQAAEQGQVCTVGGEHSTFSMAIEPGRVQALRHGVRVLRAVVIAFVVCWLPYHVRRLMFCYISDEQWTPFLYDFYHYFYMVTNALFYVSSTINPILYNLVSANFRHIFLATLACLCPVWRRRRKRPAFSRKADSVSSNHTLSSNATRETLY

NanoBRET Fold Response ([1]; 0.1μM tracer) | NanoBRET Fold Response ([1]; 1μM tracer) | NanoBRET Fold Response ([2]; 0.1μM tracer) | NanoBRET Fold Response ([2]; 1μM tracer) | NanoBRET Fold Response ([3]; 0.1μM tracer) | NanoBRET Fold Response ([3]; 1μM tracer) | NanoBRET Fold Response ([4]; 0.1μM tracer) | NanoBRET Fold Response ([4]; 1μM tracer) | NanoBRET Fold Response ([5]; 0.1μM tracer) | NanoBRET Fold Response ([5]; 1μM tracer) | SMILES | NanoBRET Fold Response ([1]; 0.1μM) | NanoBRET Fold Response ([1]; 1μM) | NanoBRET Fold Response ([2]; 0.1μM) | NanoBRET Fold Response ([2]; 1μM) | NanoBRET Fold Response ([3]; 0.1μM) | NanoBRET Fold Response ([3]; 1μM) | NanoBRET Fold Response ([4]; 0.1μM) | NanoBRET Fold Response ([4]; 1μM) | NanoBRET Fold Response ([5]; 0.1μM) | NanoBRET Fold Response ([5]; 1μM)
 |  |  |  |  |  |  |  |  |  | O=C(CCc1ccc2n1[B-](F)(F)[N+]1=C(c3ccc[nH]3)C=CC1=C2)NCc1ccc(C(=O)NCCOCCOCCNCC(O)COc2cccc3ccccc23)cc1 (centres unmarked) [Propranolol-3-NB590] | 1.02 | 1.12 | 1.06 | 1.01 | 1.04 | 1.06 | 1.05 | 0.98 | 0.95 | 0.97
0.91 | 1.34 | 0.97 | 1.00 | 1.02 | 1.06 | 1.10 | 0.99 | 1.02 | 1.37 | O=C(CCOCCOCCOCCOCCNC(=O)CCc1ccc2n1[B-](F)(F)[N+]1=C(c3ccc[nH]3)C=CC1=C2)NCCCN1CCN(C2=Nc3cc(Cl)ccc3Nc3ccccc32)CC1 [Clozapine-a-2-NB590] |  |  |  |  |  |  |  |  |  | 
